Measurements from the CheMixHub viscosity set.
Several values for one entry are separate records, joined by “and”; a condition that tells them apart may be missing. Equal entries are not always repeated.

Test: xn = mol fraction of the nth substance listed

C1C[C@@H]2[C@H]3CC[C@H](C3)[C@@H]2C1 + CCCCCCCCCC
viscosity
Conditions	293.15 K	298.15 K	303.15 K	308.15 K	313.15 K	318.15 K	323.15 K
100 kPa, x1 = 0.1005	0.989 mPa·s and 0.992 mPa·s	0.921 mPa·s	0.855 mPa·s and 0.858 mPa·s	0.8 mPa·s and 0.803 mPa·s	0.75 mPa·s and 0.754 mPa·s	0.706 mPa·s and 0.709 mPa·s	0.666 mPa·s and 0.669 mPa·s
100 kPa, x1 = 0.2006	1.074 mPa·s and 1.083 mPa·s	0.993 mPa·s and 1.002 mPa·s	0.925 mPa·s and 0.931 mPa·s	0.863 mPa·s and 0.869 mPa·s	0.808 mPa·s and 0.813 mPa·s	0.759 mPa·s and 0.764 mPa·s	0.715 mPa·s and 0.72 mPa·s
100 kPa, x1 = 0.3006	1.196 mPa·s	1.105 mPa·s	1.023 mPa·s	0.949 mPa·s	0.885 mPa·s	0.828 mPa·s	0.778 mPa·s
100 kPa, x1 = 0.3043	1.18 mPa·s	1.09 mPa·s	1.013 mPa·s	0.943 mPa·s	0.88 mPa·s	0.825 mPa·s	0.777 mPa·s
100 kPa, x1 = 0.3995	1.297 mPa·s	1.195 mPa·s	1.105 mPa·s	1.027 mPa·s	0.958 mPa·s	0.897 mPa·s	0.841 mPa·s
100 kPa, x1 = 0.4006	1.306 mPa·s	1.203 mPa·s	1.113 mPa·s	1.033 mPa·s	0.964 mPa·s	0.902 mPa·s	0.848 mPa·s
100 kPa, x1 = 0.4977	1.442 mPa·s	1.327 mPa·s	1.226 mPa·s	1.137 mPa·s	1.057 mPa·s	0.988 mPa·s	0.925 mPa·s
100 kPa, x1 = 0.4997	1.45 mPa·s	1.333 mPa·s	1.232 mPa·s	1.142 mPa·s	1.063 mPa·s	0.99 mPa·s	0.927 mPa·s
100 kPa, x1 = 0.5986	1.619 mPa·s	1.486 mPa·s	1.37 mPa·s	1.267 mPa·s	1.176 mPa·s	1.096 mPa·s	1.023 mPa·s
100 kPa, x1 = 0.6007	1.629 mPa·s	1.495 mPa·s	1.378 mPa·s	1.275 mPa·s	1.184 mPa·s	1.103 mPa·s	1.031 mPa·s
100 kPa, x1 = 0.7	1.859 mPa·s	1.7 mPa·s	1.562 mPa·s	1.441 mPa·s	–	1.238 mPa·s	1.155 mPa·s
100 kPa, x1 = 0.7001	1.849 mPa·s	1.692 mPa·s	1.555 mPa·s	1.435 mPa·s	–	1.234 mPa·s	1.15 mPa·s
100 kPa, x1 = 0.7963	2.117 mPa·s	1.938 mPa·s	1.776 mPa·s	1.634 mPa·s	1.51 mPa·s	1.398 mPa·s	1.299 mPa·s
100 kPa, x1 = 0.8002	2.153 mPa·s	1.963 mPa·s	1.798 mPa·s	1.655 mPa·s	–	1.413 mPa·s	1.313 mPa·s
100 kPa, x1 = 0.8994	2.512 mPa·s	2.284 mPa·s	2.086 mPa·s	1.914 mPa·s	1.763 mPa·s	1.629 mPa·s	1.511 mPa·s
100 kPa, x1 = 0.8995	2.525 mPa·s	2.294 mPa·s	2.093 mPa·s	1.918 mPa·s	1.765 mPa·s	1.631 mPa·s	1.513 mPa·s
101 kPa, x2 = 0.4893	1.525 mPa·s	–	–	–	–	–	–
101 kPa, x2 = 0.6905	1.245 mPa·s	–	–	–	–	–	–

O=S(=O)([O-])[O-].[O]=[V+2] + O
viscosity, 100 kPa
Conditions	293.15 K	298.15 K	303.15 K	308.15 K	313.15 K	318.15 K	323.15 K
x1 = 0.000898	1.035 mPa·s	0.9204 mPa·s	0.8258 mPa·s	0.7466 mPa·s	0.6802 mPa·s	0.6242 mPa·s	0.576 mPa·s
x1 = 0.00129	1.048 mPa·s	0.9314 mPa·s	0.836 mPa·s	0.7558 mPa·s	0.688 mPa·s	0.6311 mPa·s	0.5827 mPa·s
x1 = 0.00163	1.068 mPa·s	0.9499 mPa·s	0.8519 mPa·s	0.7707 mPa·s	0.7015 mPa·s	0.6439 mPa·s	0.5926 mPa·s
x1 = 0.002247	1.089 mPa·s	0.9678 mPa·s	0.8664 mPa·s	0.7814 mPa·s	–	–	–
x1 = 0.002326	1.101 mPa·s	0.978 mPa·s	0.8762 mPa·s	0.7911 mPa·s	0.7207 mPa·s	0.6594 mPa·s	0.6101 mPa·s
x1 = 0.002883	1.132 mPa·s	1.005 mPa·s	0.8997 mPa·s	0.8136 mPa·s	0.7379 mPa·s	0.6736 mPa·s	0.6205 mPa·s
x1 = 0.003583	1.154 mPa·s	1.024 mPa·s	0.9168 mPa·s	0.8267 mPa·s	0.7514 mPa·s	0.6872 mPa·s	0.6348 mPa·s
x1 = 0.004098	1.174 mPa·s	1.042 mPa·s	0.9321 mPa·s	0.8405 mPa·s	0.7626 mPa·s	0.6972 mPa·s	0.6409 mPa·s
x1 = 0.004417	1.19 mPa·s	–	0.9437 mPa·s	0.8499 mPa·s	0.7718 mPa·s	0.7049 mPa·s	0.6484 mPa·s
x1 = 0.00448	1.189 mPa·s	–	0.943 mPa·s	0.8499 mPa·s	–	–	–
x1 = 0.005377	1.236 mPa·s	1.094 mPa·s	0.9762 mPa·s	0.8796 mPa·s	0.7968 mPa·s	0.7274 mPa·s	0.6684 mPa·s
x1 = 0.006709	1.297 mPa·s	1.148 mPa·s	1.024 mPa·s	–	–	–	–
x1 = 0.00893	1.418 mPa·s	1.252 mPa·s	1.115 mPa·s	–	–	–	–
x1 = 0.0111	1.548 mPa·s	1.364 mPa·s	1.212 mPa·s	–	–	–	–
x1 = 0.0133	1.696 mPa·s	1.491 mPa·s	1.322 mPa·s	–	–	–	–
x1 = 0.0155	1.854 mPa·s	1.627 mPa·s	1.44 mPa·s	–	–	–	–
x1 = 0.0177	2.031 mPa·s	1.777 mPa·s	1.57 mPa·s	–	–	–	–
x1 = 0.01986	2.226 mPa·s	1.943 mPa·s	1.711 mPa·s	–	–	–	–
x1 = 0.02202	2.436 mPa·s	2.115 mPa·s and 2.121 mPa·s	–	–	–	–	–
x1 = 0.02418	2.662 mPa·s	2.312 mPa·s	2.027 mPa·s	–	–	–	–
x1 = 0.02631	2.89 mPa·s	2.509 mPa·s	2.196 mPa·s	–	–	–	–
x1 = 0.03893	–	–	–	–	–	2.575 mPa·s	–
